Experimental data taken from patent US7449447B2, “Peptidomimetic NS3-serine protease inhibitors of hepatitis C virus” (priority 2003, dated 2008).
*1 amine or outer side, *2 acyl side, *3 side chain or, on linkers, in order; H or OH if unused. Where a SMILES comes first, the peptide text is derived from it. [ ]: non-standard residue; d: D form. The star is where a group is joined. Pro(3R,4S-CMe2) = CC1(C)[C@@H]2[C@@H](C(=O)O)NC[C@@H]21; X1 = CN(C[C@@H](N*)C(C)(C)C)S(C)(=O)=O; Abu(4,4-F2) = N[C@@H](CC(F)F)C(=O)O; Phe(ol) = N[C@H](CO)Cc1ccccc1; Phg = N[C@H](C(=O)O)c1ccccc1; Tle = CC(C)(C)[C@H](N)C(=O)O; Boc = CC(C)(C)OC(=O)*; CO = O=C([*:1])[*:2]; βAla = NCCC(=O)O

Target: T1, HCV NS3/NS4a serine protease (Hepatitis C virus genotype 1b, UniProt P26663)
T1 construct: amino terminus of the NS3 protease domain (amino acids 3-181) with a tetrapeptide linker; made in house; host or cells: E. coli
Experiment: Spectrophotometric assay for HCV protease inhibitory activity (chromogenic ester substrates)
Format: biochemical, hepatitis C virus (strain 1b)
Details: single chain NS4A21-32-GSGS-NS3 3-181 protease, 30° C., pH 6.5
Description: Spectrophotometric Assay: Spectrophotometric assays for the HCV serine protease were performed on the inventive compounds by following the procedure described by R. Zhang et al., Analytical Biochemistry, 270 (1999) 268-275, the disclosure of which is incorporated herein by reference. The assay based on the proteolysis of chromogenic ester substrates is suitable for the continuous monitoring of HCV NS3 protease activity.
HCV NS3 protease (strain 1b) and its NS4A cofactor were constructed as a recombinant single chain protein. The NS4A cofactor domain (amino acid residues 21-32) was fused in frame to the amino terminus of the NS3 protease domain (amino acids 3-181) with a tetrapeptide linker. This NS4A 21-32-GSGS-NS33-181 construct was then expressed in E. coli and purified to >90% homogeneity. Kinetic parameters were determined and found to be the same as that of the full length NS31-631/NS4A1-54 protein complex produced in the baculovirus system (D. L. Sali et al, Biochemistry, 37 (1998) 3392-340). The details of the cloning, expression, purification and kinetic analysis of the of the single chain recombinant protease have been previously described (S. S. Taremi, et al. Protein Science. 7 (1998) 2143-2149.
Protein concentrations were determined by the Biorad dye method using recombinant HCV protease standards previously quantified by amino acid analysis. Prior to assay initiation, the enzyme storage buffer (50 mM sodium phosphate pH 8.0, 300 mM NaCl, 10% glycerol, 0.05% lauryl maltoside and 10 mM DTT) was exchanged for the assay buffer (25 mM MOPS pH 6.5, 300 mM NaCl, 10% glycerol, 0.05% lauryl maltoside, 5 μM EDTA and 5 μM DTT) utilizing a Biorad Bio-Spin P-6 prepacked column.
Protease Assay: HCV protease assays were performed at 30° C. using a 200 μl reaction mix in a 96-well microtiter plate. Assay buffer conditions (25 mM MOPS pH 6.5, 300 mM NaCl, 10% glycerol, 0.05% lauryl maltoside, 5 μM EDTA and 5 μM DTT) were optimized for the NS3/NS4A heterodimer (D. L. Sali et al, ibid.)). Typically, 100 μl mixtures of buffer, substrate and inhibitor were placed in wells and allowed to preincubate at 30° C. for approximately 3 minutes. One hundred μls of pre-warmed protease (30° C.) in assay buffer, was then used to initiate the reaction to produce a final concentration of 1.3 nM HCV). The Substrate cleavage by the protease was monitored over 60 minutes by measuring the release of the phenylazophenol (PAP) product at an absorbance of 370 nm with a continuous read every 30 seconds using a SpectraMax Plus microtiter plate reader (Molecular Devices, Sunnyvale, Calif.). Background hydrolysis of the substrate was subtracted. Inhibitors were tested over a range of concentrations (final DMSO concentration 4%)
Evaluation of Inhibitors The inhibition constants (Ki) for the competitive inhibitors were determined experimentally at fixed concentrations of enzyme and substrate by plotting vo/vi vs. inhibitor concentration ([I]o) according to the rearranged Michaelis-Menten equation for competitive inhibition kinetics: vo/vi=1+[I]o/(Ki(1+[S]o/Km)), where vo is the uninhibited initial velocity, vi is the initial velocity in the presence of inhibitor at any given inhibitor concentration ([I]o) and [S]o is the substrate concentration used. The resulting data were fitted using linear regression and the resulting slope, 1/(Ki(1+[S]o/Km), was used to calculate the Ki value.

T1 sequence (P26663 1013-1207, looked up, natural form): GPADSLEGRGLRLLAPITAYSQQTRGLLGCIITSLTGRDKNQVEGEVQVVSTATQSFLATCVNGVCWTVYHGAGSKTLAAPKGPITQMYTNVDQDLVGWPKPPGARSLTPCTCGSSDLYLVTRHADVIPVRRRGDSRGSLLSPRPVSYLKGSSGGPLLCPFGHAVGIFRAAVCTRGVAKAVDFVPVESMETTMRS

Row | SMILES | Ki (Ki, Table 3, rating) [µM] | Ki (Ki Rating, Table 2) [µM] | further results
1 | CN(C[C@@H](NC(=O)N[C@H](C(=O)N1C[C@H]2[C@@H]([C@H]1C(=O)N[C@@H](CC(F)F)C(=O)NC1Cc3ccccc3C1)C2(C)C)C(C)(C)C)C(C)(C)C)S(C)(=O)=O [Example 218] | > 0.5 | – | –
2 | CC(C)[C@H](NC(=O)N[C@H](C(=O)N1C[C@H]2[C@@H]([C@H]1C(=O)N[C@@H](CC(F)F)C(=O)NCCC(=O)O)C2(C)C)C(C)(C)C)C(=O)O [Example 160] | – | > 0.5 | –
3 | CC(C)(C)[C@H](NC(=O)NC1(CS(C)(=O)=O)CCCCC1)C(=O)N1C[C@H]2[C@@H](C1C(=O)NC(CC(F)F)C(=O)NCCc1ccc(C(N)=O)cc1)C2(C)C (some centres unmarked) [Example 135] | – | 0.1 to 0.5 | –
4 | CN(C[C@@H](NC(=O)N[C@H](C(=O)N1C[C@H]2[C@@H]([C@H]1C(=O)N[C@@H](CC(F)F)C(=O)NCC(O)c1ccccc1)C2(C)C)C(C)(C)C)C(C)(C)C)S(C)(=O)=O (some centres unmarked) [Example 246] | 0.1 to 0.5 | – | –
5 | CCOc1ccc(CCNC(=O)[C@H](CC(F)F)NC(=O)[C@@H]2[C@@H]3[C@H](CN2C(=O)[C@@H](NC(=O)N[C@H](CN(C)S(C)(=O)=O)C(C)(C)C)C(C)(C)C)C3(C)C)cc1OC [Example 287] | < 0.1 | – | –
6 | COc1ccc(CCNC(=O)[C@H](CC(F)F)NC(=O)[C@@H]2[C@@H]3[C@H](CN2C(=O)[C@@H](NC(=O)N[C@H](CN(C)S(C)(=O)=O)C(C)(C)C)C(C)(C)C)C3(C)C)cc1Cl [Example 281] | < 0.1 | – | –
7 | CN(C[C@@H](NC(=O)N[C@H](C(=O)N1C[C@H]2[C@@H]([C@H]1C(=O)N[C@@H](CC(F)F)C(=O)NCCc1ccccc1Br)C2(C)C)C(C)(C)C)C(C)(C)C)S(C)(=O)=O [Example 289] | < 0.1 | – | –
8 | COc1ccc(CCNC(=O)[C@H](CC(F)F)NC(=O)[C@@H]2[C@@H]3[C@H](CN2C(=O)[C@@H](NC(=O)N[C@H](CN(C)S(C)(=O)=O)C(C)(C)C)C(C)(C)C)C3(C)C)cc1Br [Example 292] | < 0.1 | – | –
9 | COC(=O)c1ccc(CCNC(=O)[C@H](CC(F)F)NC(=O)[C@@H]2[C@@H]3[C@H](CN2C(=O)[C@@H](NC(=O)N[C@H](CN(C)S(=O)(=O)c2ccccc2)C(C)C)C(C)(C)C)C3(C)C)cc1 [Example 116] | – | – | Ki (Ki, Table 1): 0.1 µM
10 | CN(C[C@@H](NC(=O)N[C@H](C(=O)N1C[C@H]2[C@@H]([C@H]1C(=O)N[C@@H](CC(F)F)C(=O)NCCc1ccc(O)c(O)c1)C2(C)C)C(C)(C)C)C(C)(C)C)S(C)(=O)=O [Example 298] | < 0.1 | – | –
11 | CN(C[C@@H](NC(=O)N[C@H](C(=O)N1C[C@H]2[C@@H]([C@H]1C(=O)N[C@@H](CC(F)F)C(=O)NCCOc1ccccc1)C2(C)C)C(C)(C)C)C(C)(C)C)S(C)(=O)=O [Example 221] | > 0.5 | – | –
12 | CC(C)[C@H](NC(=O)N[C@H](C(=O)N1C[C@H]2[C@@H]([C@H]1C(=O)NC(CC(F)F)C(=O)NCCc1ccccc1)C2(C)C)C(C)(C)C)C(=O)OC(C)(C)C (some centres unmarked) [Example 140] | – | 0.1 to 0.5 | –
13 | CN(C[C@@H](NC(=O)N[C@H](C(=O)N1C[C@H]2[C@@H]([C@H]1C(=O)N[C@@H](CC(F)F)C(=O)N[C@H](CO)Cc1ccccc1)C2(C)C)C(C)(C)C)C(C)(C)C)S(C)(=O)=O [Example 249] ({X1-CO}-[Tle][Pro(3R,4S-CMe2)][Abu(4,4-F2)][Phe(ol)]) | > 0.5 | – | –
14 | CN(C)C(=O)[C@@H](NC(=O)CNC(=O)[C@H](CC(F)F)NC(=O)[C@@H]1[C@@H]2[C@H](CN1C(=O)[C@@H](NC(=O)OC(C)(C)C)C(C)(C)C)C2(C)C)c1ccccc1 [Example 171] (Boc-[Tle][Pro(3R,4S-CMe2)][Abu(4,4-F2)]G[Phg]-NMe2) | – | > 0.5 | –
15 | CN(C[C@@H](NC(=O)N[C@H](C(=O)N1C[C@H]2[C@@H]([C@H]1C(=O)N[C@@H](CC(F)F)C(=O)NCc1ccccn1)C2(C)C)C(C)(C)C)C(C)(C)C)S(C)(=O)=O [Example 233] | > 0.5 | – | –
16 | CC(C)[C@H](NC(=O)N[C@H](C(=O)N1C[C@H]2[C@@H]([C@H]1C(=O)N[C@@H](CC(F)F)C(=O)NCCc1ccc(C(=O)O)cc1)C2(C)C)C(C)(C)C)C(=O)OC(C)(C)C [Example 125] | – | 0.1 to 0.5 | –

Row | SMILES | Ki (Ki, Table 3, rating) [µM] | Ki (Ki Rating, Table 2) [µM] | further results
17 | CC(C)[C@H](NC(=O)N[C@H](C(=O)N1C[C@H]2[C@@H]([C@H]1C(=O)N[C@@H](CC(F)F)C(=O)NCCc1ccc(C(N)=O)cc1)C2(C)C)C(C)(C)C)C(=O)O [Example 124] | – | 0.1 to 0.5 | –
18 | CC(C)[C@H](NC(=O)N[C@H](C(=O)N1C[C@H]2[C@@H]([C@H]1C(=O)N[C@@H](CC(F)F)C(=O)NCCC(=O)OC(C)(C)C)C2(C)C)C(C)(C)C)C(=O)OC(C)(C)C [Example 174] | – | > 0.5 | –
19 | CC(C)[C@@H](CNS(=O)(=O)c1ccccc1)NC(=O)N[C@H](C(=O)N1C[C@H]2[C@@H]([C@H]1C(=O)N[C@@H](CC(F)F)C(=O)NCCc1ccc(C(=O)O)cc1)C2(C)C)C(C)(C)C [Example 115] | – | – | Ki (Ki, Table 1): 0.09 µM
20 | CN(C[C@@H](NC(=O)N[C@H](C(=O)N1C[C@H]2[C@@H]([C@H]1C(=O)N[C@@H](CC(F)F)C(=O)NCCc1ccc3c(c1)OCO3)C2(C)C)C(C)(C)C)C(C)(C)C)S(C)(=O)=O [Example 272] | < 0.1 | – | –
21 | CN(C[C@@H](NC(=O)N[C@H](C(=O)N1C[C@H]2[C@@H]([C@H]1C(=O)N[C@@H](CC(F)F)C(=O)NCCc1ccc(Br)cc1)C2(C)C)C(C)(C)C)C(C)(C)C)S(C)(=O)=O [Example 290] | < 0.1 | – | –
22 | COC(=O)c1ccc(CCNC(=O)C(CC(F)F)NC(=O)[C@@H]2[C@@H]3[C@H](CN2C(=O)[C@@H](NC(=O)N[C@H](C(=O)OC(C)(C)C)C(C)C)C(C)(C)C)C3(C)C)cc1 (some centres unmarked) [Example 138] | – | 0.1 to 0.5 | –
23 | CC(C)(C)OC(=O)N[C@H](C(=O)N1C[C@H]2[C@@H]([C@H]1C(=O)NC(CC(F)F)C(=O)O)C2(C)C)C(C)(C)C (some centres unmarked) [Example 167] | – | > 0.5 | –
24 | CN(C[C@@H](NC(=O)N[C@H](C(=O)N1C[C@H]2[C@@H]([C@H]1C(=O)N[C@@H](CC(F)F)C(=O)NC1CCc3ccccc31)C2(C)C)C(C)(C)C)C(C)(C)C)S(C)(=O)=O (some centres unmarked) [Example 217] | > 0.5 | – | –
25 | CN(C[C@@H](NC(=O)N[C@H](C(=O)N1C[C@H]2[C@@H]([C@H]1C(=O)N[C@@H](CC(F)F)C(=O)NCC1CC1)C2(C)C)C(C)(C)C)C(C)(C)C)S(C)(=O)=O [Example 205] | > 0.5 | – | –
26 | CCN(Cc1ccncc1)C(=O)[C@H](CC(F)F)NC(=O)[C@@H]1[C@@H]2[C@H](CN1C(=O)[C@@H](NC(=O)N[C@H](CN(C)S(C)(=O)=O)C(C)(C)C)C(C)(C)C)C2(C)C [Example 304] | > 0.5 | – | –
27 | COc1cccc(CCNC(=O)[C@H](CC(F)F)NC(=O)[C@@H]2[C@@H]3[C@H](CN2C(=O)[C@@H](NC(=O)N[C@H](CN(C)S(C)(=O)=O)C(C)(C)C)C(C)(C)C)C3(C)C)c1OC [Example 277] | 0.1 to 0.5 | – | –
28 | CCCOc1ccc(CCNC(=O)[C@H](CC(F)F)NC(=O)[C@@H]2[C@@H]3[C@H](CN2C(=O)[C@@H](NC(=O)N[C@H](CN(C)S(C)(=O)=O)C(C)(C)C)C(C)(C)C)C3(C)C)cc1Cl [Example 299] | < 0.1 | – | –
29 | CN(C[C@@H](NC(=O)N[C@H](C(=O)N1C[C@H]2[C@@H]([C@H]1C(=O)N[C@@H](CC(F)F)C(=O)NCCN1CCOCC1)C2(C)C)C(C)(C)C)C(C)(C)C)S(C)(=O)=O [Example 240] | > 0.5 | – | –
30 | CN(C)C(=O)[C@@H](NC(=O)CCNC(=O)[C@H](CC(F)F)NC(=O)[C@@H]1[C@@H]2[C@H](CN1C(=O)[C@@H](NC(=O)OC(C)(C)C)C(C)(C)C)C2(C)C)c1ccccc1 [Example 168] (Boc-[Tle][Pro(3R,4S-CMe2)][Abu(4,4-F2)][βAla][Phg]-NMe2) | – | > 0.5 | –
31 | COC[C@@H](NC(=O)N[C@H](C(=O)N1C[C@H]2[C@@H]([C@H]1C(=O)N[C@@H](CC(F)F)C(=O)NCCc1ccc(C(=O)OC)cc1)C2(C)C)C(C)(C)C)C(C)(C)C [Example 142] | – | 0.1 to 0.5 | –
32 | CN(C[C@@H](NC(=O)N[C@H](C(=O)N1C[C@H]2[C@@H]([C@H]1C(=O)N[C@@H](CC(F)F)C(=O)NCCc1cccs1)C2(C)C)C(C)(C)C)C(C)(C)C)S(C)(=O)=O [Example 216] | < 0.1 | – | –
